Results on 16 molecules are retold here after patent publication US6984649B1, “Pyridine derivatives” (Bayer Aktiengesellschaft, priority 2000, dated 2006).

A word on the pIC50: it is the IC50 on a negative log10 scale, so that one unit is a factor of ten.

pIC50: −log10 of the molar value.

The target of the experiment is T1, human IKK-β (Homo sapiens, UniProt O14920).
T1 construct: A cDNA fragment encoding human IKK-β open reading frame was generated by PCR; His tag (from pcDNA3.1/His C); made in house; host or cells: Sf21 insect cells (baculovirus); substrate made in E. coli
T1 sequence (O14920 1-756): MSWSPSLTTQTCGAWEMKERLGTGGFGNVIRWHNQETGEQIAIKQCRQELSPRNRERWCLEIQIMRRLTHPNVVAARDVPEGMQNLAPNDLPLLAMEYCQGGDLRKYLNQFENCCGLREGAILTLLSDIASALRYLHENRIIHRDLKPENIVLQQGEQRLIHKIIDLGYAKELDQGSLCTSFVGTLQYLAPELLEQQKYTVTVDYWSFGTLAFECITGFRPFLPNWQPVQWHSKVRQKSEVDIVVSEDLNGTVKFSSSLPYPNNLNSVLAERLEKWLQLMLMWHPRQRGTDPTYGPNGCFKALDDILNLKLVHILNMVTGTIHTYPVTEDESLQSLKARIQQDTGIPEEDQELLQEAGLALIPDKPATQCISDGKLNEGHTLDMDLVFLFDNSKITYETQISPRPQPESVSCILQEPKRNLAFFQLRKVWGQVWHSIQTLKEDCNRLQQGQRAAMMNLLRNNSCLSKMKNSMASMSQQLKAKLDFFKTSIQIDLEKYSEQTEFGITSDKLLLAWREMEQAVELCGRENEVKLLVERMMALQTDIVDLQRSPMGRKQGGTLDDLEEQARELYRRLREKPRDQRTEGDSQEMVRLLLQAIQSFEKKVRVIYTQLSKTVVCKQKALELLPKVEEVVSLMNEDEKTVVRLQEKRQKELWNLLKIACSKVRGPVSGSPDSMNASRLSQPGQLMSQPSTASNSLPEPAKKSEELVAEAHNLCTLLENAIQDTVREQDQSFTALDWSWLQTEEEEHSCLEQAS
The experiment is described as follows: IKK-β kinase inhibitory assay. Type of experiment: biochemical. The settings on record: compounds as yielded by solid phase synthesis, purity about 40 to 90%, read-out: In vitro activity grade (In vitro IC50). The method in brief: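 His-tagged human IKK-β from baculovirus-infected Sf21 cells (0.6 μg/ml final) phosphorylates biotinylated GST-IκBα(1-54) (0.2 μM) in Tris-HCl pH 7.6 buffer with MgCl2. ATP with [γ-33P]ATP added, then 2 h at room temperature. Biotinylated substrate captured on streptavidin plates; bound radioactivity counted by scintillation.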
In the case of `COC(=O)c1ccc(COc2cccc(O)c2-c2cc(C3CCCNC3)c(C#N)c(N)n2)cc1` (stereo not shown) [Example 2-38], the pIC50 was over 6.30. As for `COc1ccc(CN2CCCC(c3cc(-c4c(O)cccc4OCC4CC4)nc(N)c3C#N)C2)cc1` (stereo not shown) [Example 3-08], the figure is 5.00 to 5.70; as for `O=C1Nc2nc(-c3c(O)cccc3F)cc(C3CCCNC3)c2CO1` (stereo not shown) [Example 18-07], over 6.30; as for `CC(=O)NCc1c(C2CCNCC2)cc(-c2c(O)cccc2OCC2CC2)nc1N` [Example 23-07], over 6.30. With `Cc1cc(-c2c(O)cccc2OCC2CC2)nc2c1COC(=O)N2` [Example 18-09] the figure was 5.00 to 5.70; with `CC(C)CCCOc1cccc(O)c1-c1cc(C2CCNCC2)c(CO)c(N)n1` [Example 12-07], over 6.30; with `Nc1nc(-c2c(O)cccc2OCc2ccccc2)cc(C2CCCNC2)c1CO` (stereo not shown) [Example 12-02], over 6.30. As for `CN1CCCC(c2cc(-c3ccccc3O)nc(N)c2C#N)C1` (stereo not shown) [Example 3-03], the figure is over 6.30; as for `N#Cc1c(C2CCCNC2)cc(-c2c(O)cccc2OCc2ccc(C(F)(F)F)cc2)nc1N` (stereo not shown) [Example 2-36], over 6.30. For the molecule `N#Cc1c(C2CCCNC2)cc(-c2c(O)cccc2OCCCc2ccccc2)nc1N` (stereo not shown) [Example 2-50], the pIC50 is over 6.30. As for `N#Cc1c(C2CCCNC2)cc(-c2c(O)cccc2OCC(=O)c2ccccc2)nc1N` (stereo not shown) [Example 2-51], the figure is over 6.30; as for `CCOc1cccc(O)c1-c1cc(C2CCCNC2)c(C#N)c(N)n1` (stereo not shown) [Example 2-58], over 6.30; as for `Nc1nc(-c2c(O)cccc2OCC2CC2)cc(C2CCCNC2)c1CNC(=S)Nc1ccccc1` (stereo not shown) [Example 23-15], over 6.30. With `CC(C)(C)COC(=O)N1Cc2c(C3CCCNC3)cc(-c3c(O)cccc3OCC3CC3)nc2NC1=O` (stereo not shown) [Example 24-07] the figure was over 6.30.

As for `N#Cc1c(C2CCCNC2)cc(-c2c(O)cccc2OCc2ccc(Br)cc2)nc1N` (stereo not shown) [Example 2-24], the pIC50 is over 6.30. As for `N#Cc1c(C2CCCNC2)cc(-c2c(O)cccc2OCc2cccc3ccccc23)nc1N` (stereo not shown) [Example 2-32], the figure is over 6.30.
